From patent US20120196935A1, “METHODS FOR DETECTING AUTODIGESTION” (THE REGENTS OF THE UNIVERSITY OF CALIFORNIA, priority 2009, published 2012)

System: experimental rats in hemorrhagic shock
Assay: hemorrhagic shock in rats with blockage of digestive enzymes in the lumen of the intestine
Type: in vivo
Conditions: hemorrhagic shock (two hour reduction of blood pressure), inhibitor infused into the lumen of the intestine
Source text: Fetid organic material was released from animals subject to autodigestion by pancreatic enzymes, but not from those that were not subject to autodigestion. Non-surviving animals uniformly released fetid organic material, while survivors produced dramatically lower levels. For example, animals with blockage of digestive enzymes in the lumen of the intestine (by infusion of pancreatic serine protease inhibitors, such as cyclokapron) in hemorrhagic shock had lower levels of substances such as putrescine, cadaverine, methional, and transthyretin.

With `NC[C@H]1CC[C@H](C(=O)O)CC1` [cyclokapron] the “levels of substances such as putrescine, cadaverine, methional, and transthyretin” value was “lower levels”.
